Source: patent publication US20250188151A1, “C-JUN ANTAGONIST PEPTIDES” (The University of Bath, priority 2022, published 2025)
Bridge positions count the residues as written; N and C are the ends. Peptide text beside a SMILES is read from it.

T1: cJun bZIP (human, UniProt P05412 252-308, limits assumed)
T1 construct: Purified from a His-SUMO fusion with the tag cleaved off; also called c-Jun bZIP domain; 60 amino acid c-Jun bZIP construct
T1 chain: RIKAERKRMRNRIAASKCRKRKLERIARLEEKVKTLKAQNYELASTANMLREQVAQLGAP


What was measured:
[1] = target: T2, cJun/TRE DNA interaction (Homo sapiens, UniProt P05412, S292Y); experiment: CD cJun/TRE DNA antagonism (shift of TRE DNA peak at ~281 nm, Hill fit); type: biochemical
T2 construct: The same 60 amino acid c-Jun bZIP construct was used for all experiments; His-SUMO (N, cleaved yes); made in house; host or cells: E. coli
Description: Briefly, in TBS the coding region for the essential gene dihydrofolate reductase (DHFR) is mutated to incorporate TRE sites so that introduction of c-Jun to this gene inside E. coli produces a transcriptional block that abrogates cell proliferation. The TRE site-bound c-Jun molecules sterically prevent RNA polymerase transcribing the essential gene and this can only be restored upon introduction of an effective c-Jun/TRE antagonist. Consequently, the survival of a particular cell is controlled by the ability of a peptide library member to remove the c-Jun transcriptional block and therefore to restore DHFR activity. TBS thus facilitates the identification of therapeutically valuable sequences. Further details for the TBS assay are provided in WO2020128015, which is incorporated herein by reference in its entirety. […] The TRE-DNA construct produces a positive CD peak at ˜281 nm, which decreases in intensity upon c-Jun binding. […] This method allows for the calculation of an IC50 value by fitting the titration data to a Hill equation. In some embodiments, the c-Jun antagonist is able to inhibit the DNA-binding activity of c-Jun within 10-fold of the ability of HingeW to inhibit the DNA-binding activity of c-Jun (e.g. the c-Jun antagonist has a reduced ability to inhibit the DNA-binding activity of c-Jun that is within 10-fold of that determined for HingeW). In some embodiments, the c-Jun antagonist is able to inhibit the DNA-binding activity of c-Jun within 9-fold, preferably within 8-fold, more preferably within 7-fold, even more preferably within 6-fold, yet more preferably within 5-fold of the ability of HingeW to inhibit the DNA-binding activity of c-Jun. The ability of the c-Jun antagonist and HingeW to inhibit the DNA-binding activity may be measured using the TBS assay (e.g. by quantifying the number of colonies) or by determining the IC50 using a circular dichroism assay described herein. Optionally, the c-Jun antagonist may have this activity when cross-linked. Methods for cross-linking peptides are described in more detail below.
Therefore, the acidic domain was the initial focus for optimisation. 1 was iteratively truncated (2-6) to investigate the effect on c-Jun binding and c-Jun/TRE DNA antagonism. […] Thermal denaturation experiments were then used to determine the Tm of peptide-c-Jun heterodimers, which was used as an approximate measure of target engagement. CD was also used to investigate the ability of the functional activity of peptides in antagonising the c-Jun/TRE DNA interaction. The TRE-DNA construct used produces a positive CD peak at ˜281 nm (no c-Jun absorbance at this wavelength allows for direct measurement of DNA upon binding) which decreases in intensity upon c-Jun binding. […] This allowed for the calculation of an IC50 value by fitting the titration data to a Hill equation. […] The same 60 amino acid c-Jun bZIP construct was used for all experiments, regardless of antagonist peptide length.

[2] = Serum stability (LC-MS); type: in vitro ADME; conditions: human serum; for remaining at 96 h, 30 μM / metabolised at 24 h, 30 μM: 37° C.; for remaining at 96 h, 30 μM: after 96 hours, read-out: peak intensities relative to starting values; for metabolised at 24 h, 30 μM: read-out: degraded
Method: Serum Stability: Peptide stocks (600 μM) were prepared in water and 50 μL added to 950 μL human serum (Merck) before incubation at 37° C. […] The supernatant was analysed by LC-MS and quantified using the sum of the two largest charge state intensities (1: 9+, 10+; 23,24: 3+, 4+).

[3] = target: cJun bZIP (Homo sapiens, UniProt P05412, S292Y); experiment: CD spectra and thermal denaturation of peptide/cJun heterodimers; conditions: for Tm (° C.): peptide (5 μM)/c-Jun (5 μM) heterodimer, Table 6
Method: Circular Dichroism (CD): An Applied Photophysics Chirascan was used for CD measurements, with a 200 μL sample in a 1 mm path length CD cell. Protein/DNA samples were suspended in 150 mM potassium phosphate, 150 mM potassium fluoride and 5 mM TCEP at pH 7.4 and were equilibrated for 30 minutes before measurement. […] These scans were averaged and converted to molar residue ellipticities (MRE). Thermal denaturation experiments were performed by measuring the ellipticity at 222 nm over a 1 to 90° C. gradient at 1° C. increments. Post-melt scans at 20° C. confirmed the transitions were reversible as they overlaid within 10% of the pre-melt scan.
Circular Dichroism (CD): An Applied Photophysics Chirascan was used for CD measurements, with a 200 μL sample in a 1 mm path length CD cell. Protein/DNA samples were suspended in 150 mM potassium phosphate, 150 mM potassium fluoride and 5 mM TCEP at pH 7.4 and were equilibrated for 30minutes before measurement. […] Thermal denaturation experiments were performed by measuring the ellipticity at 222 nm over a 1 to 90° C. gradient at 1° C. increments. Post-melt scans at 20° C. confirmed the transitions were reversible as they overlaid within 10% of the pre-melt scan.
Peptide helicity was determined by quantifying the CD signal at 222 nm of peptide only samples. Thermal denaturation experiments were then used to determine the Tm of peptide-c-Jun heterodimers, which was used as an approximate measure of target engagement. […] The same 60 amino acid c-Jun bZIP construct was used for all experiments, regardless of antagonist peptide length.

[4] = CD spectra and thermal denaturation of peptide-only samples (helicity, homodimer Tm)
[5] = target: cJun (Homo sapiens, UniProt P05412, S292Y); experiment: Isothermal titration calorimetry, Example 2 (PEAQ-ITC); type: binding; design: The same 60 amino acid c-Jun bZIP construct was used for all experiments; His-SUMO (N, cleaved yes); made in house; host or cells: E. coli; conditions: for ΔG / ΔH / −TΔS / Stoichiometry, n: ITC; for Stoichiometry, n: c-Jun-peptide interaction
Method: 2 μL injections of antagonist peptide at 25-200 μM were injected into the cell containing cJun at 2.5-20 μM. Software was used to record and analyse the heat change upon addition. Control experiments involved the injection of the antagonist peptide sample into the cell containing ITC buffer alone to determine the heat of dilution which was subtracted. The resulting binding data were fit to a one site binding model to extract the enthalpy change of binding (ΔH) and the equilibrium binding constant (KD), from which the free energy change of binding (ΔG) and the entropy change of binding (ΔS) was calculated (Wiseman et al., 1989). Thermodynamic parameters are presented as an average of two independent experiments with errors given as one standard deviation.

[6] = target: T1, cJun bZIP; experiment: CD thermal denaturation
[7] = target: T1, cJun bZIP; experiment: cell-based or functional assay
[8] = target: T1, cJun bZIP; experiment: CD thermal denaturation, peptide 5 µM and c-Jun 5 µM
[9] = target: T1, cJun bZIP; experiment: ITC (PEAQ-ITC), peptide injected into cJun, one site model

IC50 CD [7]	Molecule	remaining at 96 h, 30 μM [2]	metabolised at 24 h, 30 μM [2]	Tm (° C.) [3]	ΔG [5]	ΔH [5]	−TΔS [5]	Stoichiometry, n [5]	Tm (° C.) of peptide-c-Jun heterodimer [8]	also measured
81.1 µM	Ac-EAKELVDEEDVLEEEIEQLEERNYALRKEIEDLQKQ-NH2 (lactam 3-7, Synthetic, NΔ20 CΔ7; also called cyclised form of 14/15) [HingeW variant peptide 15]								59.4 ° C.	heterodimer ΔTm from lactamisation (15 against linear 14) [6]: ~2 ° C.
74.9 µM	Ac-EAEELVVEEKVLEDEIEQLEERNYALRKEIEDLQKQ-NH2 (lactam 10-14; SMILES CC[C@H](C)[C@H](NC(=O)[C@H](CCC(=O)O)NC(=O)[C@H](CCCCN)NC(=O)[C@H](CCCNC(=N)N)NC(=O)[C@H](CC(C)C)NC(=O)[C@H](C)NC(=O)[C@H](Cc1ccc(O)cc1)NC(=O)[C@H](CC(N)=O)NC(=O)[C@H](CCCNC(=N)N)NC(=O)[C@H](CCC(=O)O)NC(=O)[C@H](CCC(=O)O)NC(=O)[C@H](CC(C)C)NC(=O)[C@H](CCC(N)=O)NC(=O)[C@H](CCC(=O)O)NC(=O)[C@@H](NC(=O)[C@H](CCC(=O)O)NC(=O)[C@@H]1CC(=O)NCCCC[C@H](NC(=O)[C@H](CCC(=O)O)NC(=O)[C@H](CCC(=O)O)NC(=O)[C@@H](NC(=O)[C@@H](NC(=O)[C@H](CC(C)C)NC(=O)[C@H](CCC(=O)O)NC(=O)[C@H](CCC(=O)O)NC(=O)[C@H](C)NC(=O)[C@H](CCC(=O)O)NC(C)=O)C(C)C)C(C)C)C(=O)N[C@@H](C(C)C)C(=O)N[C@@H](CC(C)C)C(=O)N[C@@H](CCC(=O)O)C(=O)N1)[C@@H](C)CC)C(=O)N[C@@H](CCC(=O)O)C(=O)N[C@@H](CC(=O)O)C(=O)N[C@@H](CC(C)C)C(=O)N[C@@H](CCC(N)=O)C(=O)N[C@@H](CCCCN)C(=O)N[C@@H](CCC(N)=O)C(N)=O, Synthetic, NΔ20 CΔ7; also called cyclised form of 16/17) [HingeW variant peptide 17]								64 ° C.	increase in cJun heterodimer Tm from its linear form 16 [6]: ~9 ° C.; -TΔS [9]: 4.34 kcal/mol; Kd [9]: 0.0696 µM; Stoichiometry, n [9]: 1.2; ΔG [9]: -9.77 kcal/mol; ΔH [9]: -14.1 kcal/mol

The next lines start with the molecule.

Molecule	IC50 CD [7]	remaining at 96 h, 30 μM [2]	metabolised at 24 h, 30 μM [2]	Tm (° C.) [3]	ΔG [5]	ΔH [5]	−TΔS [5]	Stoichiometry, n [5]	Tm (° C.) of peptide-c-Jun heterodimer [8]	also measured
CC[C@H](C)[C@H](NC(=O)[C@H](CCC(=O)O)NC(=O)[C@H](CCCCN)NC(=O)[C@H](CCCNC(=N)N)NC(=O)[C@H](CC(C)C)NC(=O)[C@H](C)NC(=O)[C@H](Cc1ccc(O)cc1)NC(=O)[C@H](CC(N)=O)NC(=O)[C@H](CCCNC(=N)N)NC(=O)[C@H](CCC(=O)O)NC(=O)[C@H](CCC(=O)O)NC(=O)[C@H](CC(C)C)NC(=O)[C@H](CCC(N)=O)NC(=O)[C@H](CCC(=O)O)NC(=O)[C@@H](NC(=O)[C@H](CCC(=O)O)NC(=O)[C@H](CCC(=O)O)NC(=O)[C@H](CCC(=O)O)NC(=O)[C@H](CC(C)C)NC(=O)[C@@H](NC(=O)[C@H](CC(=O)O)NC(=O)[C@H](CCC(=O)O)NC(=O)[C@H](CCC(=O)O)NC(=O)[C@@H](NC(=O)[C@@H](NC(=O)[C@H](CC(C)C)NC(=O)[C@H](CCC(=O)O)NC(=O)[C@H](CCC(=O)O)NC(=O)[C@H](C)NC(=O)[C@H](CCC(=O)O)NC(C)=O)C(C)C)C(C)C)C(C)C)[C@@H](C)CC)C(=O)N[C@H]1CCCCNC(=O)C[C@@H](C(=O)N[C@@H](CCC(N)=O)C(N)=O)NC(=O)[C@H](CCC(N)=O)NC(=O)[C@H](CC(C)C)NC(=O)[C@H](CC(=O)O)NC1=O [Peptide 23] (Ac-EAEELVVEEDVLEEEIEQLEERNYALRKEIKDLQDQ-NH2; lactam 31-35 (inferred))		17%	21%	65.0 ± 1.4 °C	-9.661 ± 0.117 kcal/mol	-23.6 ± 0.607 kcal/mol	13.95 ± 0.619 kcal/mol	0.97 ± 0.02		fold lower IC50 than 11 ([1]; P=0.003): 1.6 fold; heterodimer ΔTm compared to parent sequence 11 [3]: ~8 °C; heterodimer ΔTm from lactamisation ([3]; cyclised vs its linear form): ~9 °C; change in fraction helicity from lactamisation ([4]; cyclised vs its linear form): ~8%; Kd [5]: 0.0866 ± 0.017 µM
CC[C@H](C)[C@H](NC(=O)[C@H](CCC(=O)O)NC(=O)[C@H](CCCCN)NC(=O)[C@H](CCCNC(=N)N)NC(=O)[C@H](CC(C)C)NC(=O)[C@H](C)NC(=O)[C@H](Cc1ccc(O)cc1)NC(=O)[C@H](CC(N)=O)NC(=O)[C@H](CCCNC(=N)N)NC(=O)[C@H](CCC(=O)O)NC(=O)[C@H](CCC(=O)O)NC(=O)[C@H](CC(C)C)NC(=O)[C@H](CCC(N)=O)NC(=O)[C@H](CCC(=O)O)NC(=O)[C@@H](NC(=O)[C@H](CCC(=O)O)NC(=O)[C@@H]1CC(=O)NCCCC[C@H](NC(=O)[C@H](CCC(=O)O)NC(=O)[C@H](CCC(=O)O)NC(=O)[C@@H](NC(=O)[C@@H](NC(=O)[C@H](CC(C)C)NC(=O)[C@H](CCC(=O)O)NC(=O)[C@H](CCC(=O)O)NC(=O)[C@H](C)NC(=O)[C@H](CCC(=O)O)NC(C)=O)C(C)C)C(C)C)C(=O)N[C@@H](C(C)C)C(=O)N[C@@H](CC(C)C)C(=O)N[C@@H](CCC(=O)O)C(=O)N1)[C@@H](C)CC)C(=O)N[C@H]1CCCCNC(=O)C[C@@H](C(=O)N[C@@H](CCC(N)=O)C(N)=O)NC(=O)[C@H](CCC(N)=O)NC(=O)[C@H](CC(C)C)NC(=O)[C@H](CC(=O)O)NC1=O [Peptide 24] (Ac-EAEELVVEEKVLEDEIEQLEERNYALRKEIKDLQDQ-NH2; lactam 10-14, 31-35 (inferred))		35%	7%	63.2 ± 1.3 °C	-10.95 ± 0.241 kcal/mol	-30.55 ± 0.624 kcal/mol	19.6 ± 0.669 kcal/mol	1.05 ± 0.01		change in IC50 compared to the best single lactamised peptide ([1]; P=0.02): significant decrease in IC50 value; serum stability ([2]; LC-MS): highest stability; change in heterodimer Tm compared to the best single lactamised peptide [3]: no significant change in heterodimer Tm; increase in peptide helicity from 1 [4]: 20%; more helical compared to the best single lactamised peptide [4]: ~4%
Ac-KEAEDLVVEEDVLEEEIEQLEERNYALRKEIKDLQDQ-NH2 (lactam (positions not given here); also: one i to i+4 K-D lactam bridge, pair not given here, Synthetic, NΔ19 CΔ7; also called cyclised form of 12/13) [HingeW variant peptide 13]	92.5 µM								58.5 ° C.	heterodimer ΔTm against parent sequence 11 [6]: ~1 ° C.
